# Measured values published in BindingDB's records for doi:10.1016/s0742-8413(97)00614-2 (University of Montana, 1997).
# Biological target: T1, 5-hydroxytryptamine receptor 1A (Oryctolagus cuniculus, UniProt Q9MZ11)
# T1 sequence (Q9MZ11 whole entry): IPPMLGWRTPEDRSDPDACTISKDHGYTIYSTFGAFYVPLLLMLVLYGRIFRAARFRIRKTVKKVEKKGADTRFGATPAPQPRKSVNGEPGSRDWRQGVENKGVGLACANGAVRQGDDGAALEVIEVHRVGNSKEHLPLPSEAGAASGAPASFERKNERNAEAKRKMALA
row,Structure (SMILES),Ki
1,C=C1C(=O)O[C@H]2[C@H]1CC/C(C)=C\CC[C@@]1(C)O[C@@H]21,> 10000 nM
2,NCCc1ccc(O)c(O)c1,7800 nM
3,"O=C1NCN(c2ccccc2)C12CCN(CC1COc3ccccc3O1)CC2 (stereo unspecified) [8-(2,3-Dihydro-benzo[1,4]dioxin-2-ylmethyl)-1-phenyl-1,3,8-triaza-spiro[4.5]decan-4-one]",2.4 nM
4,COc1cccc(OC)c1OCCNCC1Oc2ccccc2OC1c1ccccc1 (stereo unspecified) [NSC_185453],3 nM
5,FC(F)(F)c1cccc(N2CCNCC2)c1 [TFMPP],130 nM
6,"CSc1ccc2c(c1)C(N1CCN(C)CC1)Cc1ccccc1S2 (stereo unspecified) [methanesulfonic acid;1-methyl-4-(3-methylsulfanyl-5,6-dihydrobenzo[b][1]benzothiepin-5-yl)piperazine]",810 nM
